Values belong to the substance of their own block, whether it stands above or below them.
Key:
rat PTH-1 receptor = target: T1, rat PTH-1 receptor (Rattus norvegicus, UniProt P25961); conditions: CHO cells expressing the cloned rat PTH-1 receptor; cited from earlier work
T1 construct: host or cells: CHO cells
T1 sequence (P25961 27-591): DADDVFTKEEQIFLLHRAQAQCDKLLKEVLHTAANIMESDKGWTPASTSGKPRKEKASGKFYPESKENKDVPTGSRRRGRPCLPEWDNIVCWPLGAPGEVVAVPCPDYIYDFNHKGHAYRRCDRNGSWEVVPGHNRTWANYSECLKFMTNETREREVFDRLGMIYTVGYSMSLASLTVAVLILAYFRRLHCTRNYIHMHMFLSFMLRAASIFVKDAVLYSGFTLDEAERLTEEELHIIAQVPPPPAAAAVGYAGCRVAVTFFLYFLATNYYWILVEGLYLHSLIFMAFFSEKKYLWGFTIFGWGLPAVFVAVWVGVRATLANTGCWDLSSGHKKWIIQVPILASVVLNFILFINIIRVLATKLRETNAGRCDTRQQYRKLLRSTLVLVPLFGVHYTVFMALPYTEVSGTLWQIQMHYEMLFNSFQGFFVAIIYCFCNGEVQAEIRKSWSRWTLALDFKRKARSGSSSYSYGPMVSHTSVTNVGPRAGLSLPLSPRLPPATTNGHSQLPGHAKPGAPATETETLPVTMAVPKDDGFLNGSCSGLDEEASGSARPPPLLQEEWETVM

rat renal membranes = conditions: cited from earlier work
AC = conditions: cited from earlier work
the receptor = target: T2, the receptor (Homo sapiens, UniProt Q03431); conditions: cited from earlier work
T2 sequence (Q03431 27-593): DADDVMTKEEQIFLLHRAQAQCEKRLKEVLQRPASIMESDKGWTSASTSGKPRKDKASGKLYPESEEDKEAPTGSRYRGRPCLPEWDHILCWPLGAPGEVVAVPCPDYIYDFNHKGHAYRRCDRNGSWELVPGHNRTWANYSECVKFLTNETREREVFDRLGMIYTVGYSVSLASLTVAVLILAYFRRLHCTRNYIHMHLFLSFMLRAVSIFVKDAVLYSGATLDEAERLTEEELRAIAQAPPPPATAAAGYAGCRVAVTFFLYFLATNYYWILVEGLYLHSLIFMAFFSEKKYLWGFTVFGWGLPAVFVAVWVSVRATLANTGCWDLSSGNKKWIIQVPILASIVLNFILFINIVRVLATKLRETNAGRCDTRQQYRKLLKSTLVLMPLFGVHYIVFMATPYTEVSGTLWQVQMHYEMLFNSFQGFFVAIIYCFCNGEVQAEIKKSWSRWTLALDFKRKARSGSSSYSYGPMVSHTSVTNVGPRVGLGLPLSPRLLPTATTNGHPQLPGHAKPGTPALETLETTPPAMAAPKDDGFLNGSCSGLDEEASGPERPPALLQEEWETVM

hP1R-[R^11]-Tether(1–11) = target: T3, hP1R-[R^11]-Tether(1–11) (Homo sapiens, UniProt Q03431); experiment: Q-PTH(1–34) cAMP dose-response, COS-7 cells expressing hP1R-[R11]-Tether(1–11); type: cell-based
T3 construct: expressed in transfected cells; host or cells: COS-7 cells, transient, DEAE-dextran
T3 sequence (Q03431 with tags, fused parts or gaps): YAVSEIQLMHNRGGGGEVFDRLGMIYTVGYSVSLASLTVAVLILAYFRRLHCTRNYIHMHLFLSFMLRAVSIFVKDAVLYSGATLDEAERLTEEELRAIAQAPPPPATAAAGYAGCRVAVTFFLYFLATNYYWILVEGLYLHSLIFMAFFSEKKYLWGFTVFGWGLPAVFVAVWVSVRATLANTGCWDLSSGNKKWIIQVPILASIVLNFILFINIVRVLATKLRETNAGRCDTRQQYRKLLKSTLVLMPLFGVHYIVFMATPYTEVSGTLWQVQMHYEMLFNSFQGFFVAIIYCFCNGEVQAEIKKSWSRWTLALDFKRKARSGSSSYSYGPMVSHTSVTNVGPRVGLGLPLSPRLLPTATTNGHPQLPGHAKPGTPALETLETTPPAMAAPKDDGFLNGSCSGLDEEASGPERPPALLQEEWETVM
Protocol: (§1) Cell Culture: COS-7 cells were cultured at 37° C. in T-75 flasks ([…] in Dulbecco's modified Eagle's medium (DMEM) supplemented with fetal bovine serum (10%), penicillin G (20 units/ml), streptomycin sulfate (20 μg/ml) and amphotericin B (0.05 μg/ml) in a humidified atmosphere containing 5% CO2. Cells were sub-cultured in 24-well plates and, when confluent, were treated with fresh media and shifted to 33° C. for 12 to 24 h prior to the assay (Bergwitz, C., et al., J. Biol. Chem. 272:28861–28868 (1997); Abell, A., et al., J. Biol. Chem. 271:4518–4527 (1996)).
(§2) PTH Receptor mutagenesis and COS-7 cell expression: The pcDNA-1-based plasmid encoding the intact HPTH-1 receptor (HK-WT in reference (Schipani, E., et al., Endocrinol. 132:2157–2165 (1993)) and herein called hP1R-WT) was used for studies in COS-7 cells. The truncated human PTH-1 receptor (hP1R-de1Nt) (FIG. 18) was constructed from the HK-WT plasmid by oligonucleotide-directed mutagenesis (Kunkel, T. A., Proc. Natl. Acad. Sci. USA 82:488–492 (1985)). […]
(§3) cAMP Stimulation: Stimulation of cells with peptide analogs was performed in 24-well plates. […] The cAMP content of the diluted lysate was determined by radioimmunoassay.

hP1R-Tether(1–9) = target: T4, hP1R-Tether(1–9) (Homo sapiens, UniProt Q03431); experiment: Q-PTH(1–34) cAMP dose-response, COS-7 cells expressing hP1R-Tether(1–9); type: cell-based
T4 construct: expressed in transfected cells; host or cells: COS-7 cells, transient, DEAE-dextran
T4 sequence (Q03431 with tags, fused parts or gaps): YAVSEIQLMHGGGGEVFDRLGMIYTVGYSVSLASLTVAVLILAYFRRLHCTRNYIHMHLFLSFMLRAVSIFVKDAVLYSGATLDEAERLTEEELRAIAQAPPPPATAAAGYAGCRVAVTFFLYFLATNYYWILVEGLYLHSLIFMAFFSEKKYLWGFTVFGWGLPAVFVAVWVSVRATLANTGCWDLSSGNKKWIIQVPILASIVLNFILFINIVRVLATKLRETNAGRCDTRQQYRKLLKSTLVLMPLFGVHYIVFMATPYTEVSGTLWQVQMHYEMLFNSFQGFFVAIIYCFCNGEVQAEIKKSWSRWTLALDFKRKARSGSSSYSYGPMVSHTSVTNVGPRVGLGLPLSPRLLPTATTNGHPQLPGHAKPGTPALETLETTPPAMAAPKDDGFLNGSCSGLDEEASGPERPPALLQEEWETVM
Protocol: as §1, §2, §3

hP1R-Tether constructs = experiment: Q-PTH(1–34) cAMP stimulation of the hP1R-Tether constructs and alanine mutants in COS-7 cells; type: cell-based, human
Protocol: as §1, §2, §3

hP1r-de1NT = target: T5, hP1r-de1NT (Homo sapiens, UniProt Q03431); experiment: Q-PTH(1–34) cAMP dose-response, COS-7 cells expressing hP1R-delNT; type: cell-based
T5 construct: expressed in transfected cells; host or cells: COS-7 cells, transient, DEAE-dextran
T5 sequence (Q03431 with tags, fused parts or gaps): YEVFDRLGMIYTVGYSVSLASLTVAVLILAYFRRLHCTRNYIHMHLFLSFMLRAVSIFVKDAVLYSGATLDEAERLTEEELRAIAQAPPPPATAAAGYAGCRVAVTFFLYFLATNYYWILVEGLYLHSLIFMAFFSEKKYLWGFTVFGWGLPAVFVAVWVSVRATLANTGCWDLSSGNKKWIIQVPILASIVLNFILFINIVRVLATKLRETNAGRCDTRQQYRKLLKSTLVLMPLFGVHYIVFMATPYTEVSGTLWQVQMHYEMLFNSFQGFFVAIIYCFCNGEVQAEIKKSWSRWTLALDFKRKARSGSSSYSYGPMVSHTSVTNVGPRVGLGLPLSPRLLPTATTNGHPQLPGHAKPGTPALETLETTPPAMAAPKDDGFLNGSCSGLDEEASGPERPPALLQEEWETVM
Protocol: as §1, §2, §3

Substance: PTHrP(1–16) (AVSEHQLLHDKGKSIQ; Parathyroid hormone-related protein; UniProt P12272 37-52, looked up, fragment) [short NH2-terminal PTHrP peptide investigated previously]
- activity in AC assays (rat PTH-1 receptor): inactive

Substance: bPTH(1–12) (AVSEIQFMHNLG; Parathyroid hormone; UniProt P01268 32-43, looked up, fragment) [short NH2-terminal PTH peptide investigated previously]
- activity in adenylyl cyclase assays (rat renal membranes): inactive

Substance: PTH(15–34)
- activation of AC (AC): does not activate AC
- binding to the receptor (the receptor): binds weakly

- cAMP dose-response relative to the intact wildtype receptor (hP1R-[R^11]-Tether(1–11)): right-shifted response
- cAMP dose-response relative to the intact wildtype receptor (hP1R-Tether(1–9)): right-shifted response
- cAMP dose-response relative to the intact wildtype receptor (hP1r-de1NT): right-shifted response
Substance: [Ala^1,3,10,12,Arg^11, Tyr^34]hPTH(1–34)NH2 [Q-PTH(1–34)]
- maximum cAMP response (hP1R-[R^11]-Tether(1–11)): capable of producing a maximum cAMP response
- maximum cAMP response (hP1R-Tether(1–9)): capable of producing a maximum cAMP response
- dose-response curves for the hP1R-Tether constructs relative to hP1R-de1NT (hP1R-Tether constructs): parallel and left-shifted
- cAMP response of the alanine mutants of hP1R-[R11]-Tether(1–11) to exogenous ligand (hP1R-Tether constructs; alanine scan mutants): responded well
- maximum cAMP response (hP1r-de1NT): capable of producing a maximum cAMP response

From US7057012B1, “PTH functional domain conjugate peptides, derivatives thereof and novel tethered ligand-receptor molecules” (The General Hospital Corporation, priority 1998, dated 2006)
